According to the NIST ThermoML archive (doi:10.1021/je300557g):

Assay: xn = mol fraction of the nth substance listed
Details: 101 kPa, Liquid; for mass density: Vibrating tube method

CCCC[n+]1ccc(C)cc1.F[B-](F)(F)F [1-butyl-4-methylpyridinium tetrafluoroborate] + CO
Details | kinematic viscosity, 293.15 K [m2/s] | kinematic viscosity, 303.15 K [m2/s] | kinematic viscosity, 313.15 K [m2/s] | kinematic viscosity, 323.15 K [m2/s] | mass density, 293.15 K [kg/m3] | mass density, 303.15 K [kg/m3] | mass density, 313.15 K [kg/m3] | mass density, 323.15 K [kg/m3]
x1 = 0.0477 | 1.02e-06 | 8.83e-07 | 7.78e-07 | 6.88e-07 | 876.71 | 867.94 | 858.74 | 849.6
x1 = 0.0958 | 1.42e-06 | 1.2e-06 | 1.02e-06 | 8.92e-07 | 936.07 | 927.56 | 918.89 | 910.02
x1 = 0.2055 | 2.83e-06 | 2.29e-06 | 1.91e-06 | 1.62e-06 | 1021.53 | 1013.48 | 1005.4 | 997.15
x1 = 0.2889 | 4.57e-06 | 3.6e-06 | 2.92e-06 | 2.44e-06 | 1062.26 | 1054.51 | 1046.65 | 1038.82
x1 = 0.3846 | 7.5e-06 | 5.73e-06 | 4.53e-06 | 3.7e-06 | 1095.45 | 1087.98 | 1080.32 | 1072.88
x1 = 0.4866 | 1.31e-05 | 9.56e-06 | 7.3e-06 | 5.78e-06 | 1121.16 | 1113.92 | 1106.46 | 1099.31
x1 = 0.589 | 2.12e-05 | 1.58e-05 | 1.15e-05 | 8.6e-06 | 1140.6 | 1133.51 | 1126.23 | 1119.29
x1 = 0.7073 | 3.61e-05 | 2.59e-05 | 1.9e-05 | 1.3e-05 | 1157.8 | 1150.84 | 1143.72 | 1136.94
x1 = 0.7963 | 6.42e-05 | 4.11e-05 | 2.8e-05 | 1.93e-05 | 1168.12 | 1161.22 | 1154.18 | 1147.48
x1 = 0.8459 | 8.43e-05 | 5.16e-05 | 3.41e-05 | 2.29e-05 | 1173.12 | 1166.24 | 1159.23 | 1152.56
x1 = 0.8947 | 0.00012 | 6.92e-05 | 4.41e-05 | 2.85e-05 | 1177.58 | 1170.73 | 1163.73 | 1157.09
x1 = 0.9465 | 0.000168 | 9.14e-05 | 5.59e-05 | 3.56e-05 | 1181.89 | 1175.06 | 1168.07 | 1161.45

CCCC[n+]1ccc(C)cc1.F[B-](F)(F)F [1-butyl-4-methylpyridinium tetrafluoroborate] + CCO
Details | kinematic viscosity, 293.15 K [m2/s] | kinematic viscosity, 303.15 K [m2/s] | kinematic viscosity, 313.15 K [m2/s] | kinematic viscosity, 323.15 K [m2/s] | mass density, 293.15 K [kg/m3] | mass density, 303.15 K [kg/m3] | mass density, 313.15 K [kg/m3] | mass density, 323.15 K [kg/m3]
x1 = 0.0481 | 1.95e-06 | 1.61e-06 | 1.34e-06 | 1.14e-06 | 852 | 843.78 | 835.55 | 827.17
x1 = 0.0952 | 2.57e-06 | 2.07e-06 | 1.69e-06 | 1.41e-06 | 900.2 | 892.25 | 884.1 | 875.8
x1 = 0.1896 | 4.08e-06 | 3.17e-06 | 2.53e-06 | 2.08e-06 | 972.12 | 964.56 | 956.53 | 948.48
x1 = 0.2856 | 6.35e-06 | 4.76e-06 | 3.75e-06 | 3.03e-06 | 1024.13 | 1016.72 | 1008.96 | 1001.26
x1 = 0.3839 | 9.91e-06 | 7.25e-06 | 5.54e-06 | 4.4e-06 | 1063.87 | 1056.57 | 1049.08 | 1041.7
x1 = 0.5297 | 1.96e-05 | 1.44e-05 | 1.05e-05 | 7.4e-06 | 1107.23 | 1100.11 | 1092.88 | 1085.83
x1 = 0.5858 | 2.57e-05 | 1.76e-05 | 1.33e-05 | 9.33e-06 | 1120.51 | 1113.47 | 1106.29 | 1099.32
x1 = 0.6862 | 4e-05 | 2.78e-05 | 1.96e-05 | 1.36e-05 | 1140.91 | 1133.97 | 1126.84 | 1119.98
x1 = 0.7889 | 7.27e-05 | 4.37e-05 | 3.05e-05 | 2.08e-05 | 1158.26 | 1151.41 | 1144.3 | 1137.51
x1 = 0.8418 | 9.79e-05 | 5.71e-05 | 3.87e-05 | 2.59e-05 | 1166.08 | 1159.26 | 1152.16 | 1145.41
x1 = 0.8942 | 0.000132 | 7.41e-05 | 4.81e-05 | 3.15e-05 | 1173.2 | 1166.4 | 1159.32 | 1152.61
x1 = 0.946 | 0.000177 | 9.52e-05 | 5.94e-05 | 3.79e-05 | 1179.69 | 1172.89 | 1165.84 | 1159.18
